Experimental findings from patent US20230416329A1, “A PEPTIDE WITH DISULFIDE BONDS AND INHIBITORY ACTIVITY AGAINST SERINE PROTEASES, DERIVED HYBRID PEPTIDES THEREOF, AND USES THEREOF” (INSTITUTE OF MATERIA MEDICA , CHINESE ACADEMY OF MEDICAL …, priority 2020, published 2023) are described below.

The structures appear in SMILES notation. Bridge positions count the residues as written; N and C are the ends. Peptide text beside a SMILES is read from it.

The target of the assay is T1, bovine trypsin (Bos taurus, UniProt P00760).
T1 sequence (P00760 24-246): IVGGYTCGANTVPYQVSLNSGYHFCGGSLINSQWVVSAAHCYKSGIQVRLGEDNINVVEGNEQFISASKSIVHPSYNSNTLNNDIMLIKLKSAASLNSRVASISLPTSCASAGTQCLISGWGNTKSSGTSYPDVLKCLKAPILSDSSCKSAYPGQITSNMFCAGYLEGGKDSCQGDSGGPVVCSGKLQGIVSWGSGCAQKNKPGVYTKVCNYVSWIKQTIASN
Kind of assay: Trypsin inhibitory activity of peptides (BApNA hydrolysis, OD405; IC50, Ki, residual activity). It counts as biochemical. Conditions: for Ki: read-out: inhibition constant (Ki) towards trypsin; for IC50: trypsin 50 nM, BApNA 1.22 mM, read-out: IC50. On the procedure:
The substrates N-succinyl-Ala-Ala-Pro-Phe-p-nitroaniline (AAPFpNA), Nα—Benzoyl-L-arginine-4-nitroaniline hydrochloride (BApNA) and N-succinyl-[…] (AAApNA) are used in competitive binding reaction to determine the inhibitory activities against α-chymotrypsin, bovine trypsin, and porcine pancreatic elastase, respectively. Experiments for α-chymotrypsin and bovine trypsin inhibition were measured in 20 mM CaCl2, 50 mM Tris-HCl buffer (pH 7.8), and that for porcine elastase inhibition was measured in 50 mM Tris-HCl buffer (pH 8.0). The concentration of the peptide was measured using optical density (OD) at 280 nm. The Michaelis constant (Km) of the enzyme hydrolysis substrate is calculated from the initial rate of substrate hydrolysis at 405 nm. The absorbance value of the substrate was measured at 405 nm after complete hydrolysis. All data were processed using nonlinear regression.
• (1) Added 200 μL of reaction buffer (20 mM CaCl2 and 50 mM Tris-HCl, pH 7.8) into the 96-well plate, and preheated at 37° C. for 15 min. Then added 5 μL of different concentrations of substrates (p-Nitroanilide, pNA, 0.5% in DMSO), and mixed by centrifugation at 500 rpm for 1 min. […] The experiment was performed in triplicate. The standard curve was obtained by plotting the OD405 nm value with pNA concentration. • (2) Added 190 μL of reaction buffer (20 mM CaCl2 and 50 mM Tris-HCl, pH 7.8) and 10 μL of 1 μM trypsin into the 96-well plate, and preheated at 37° C. for 15 min. Then added 5 μL of different concentrations of substrates (BApNA, 0.5% in DMSO) and mixed by centrifugation at 500 rpm for 1 min. […] The experiment was performed in triplicate. The corresponding curve was obtained by plotting the OD405 nm value with time. Divided the slope of the curve by the slope of the standard curve and the enzyme concentration to obtain the initial velocity V0 (mM/(min*mM protein). Plotted the initial velocity V0 with the concentration of substrate BApNA using Prism software, and the Michaelis constant Km value of trypsin hydrolyzing BApNA was obtained.
• (1) Added a total 190 μL of reaction buffer (20 mM CaCl2 and 50 mM Tris-HCl, pH 7.8) along with different concentrations of anti-trypsin peptides (BTs) into the pre-cooled 96-well plate, followed by preheating at 37° C., and spined down at 500 rpm for 5 min. Next added 10 μL of 1 μM trypsin, incubated at 37° C., and then spined down at 500 rpm for 10 min. Finally, added 5 μL of 50 mM BApNA, and mixed by centrifugation at 500 rpm for 1 min. The plate was incubated at 37° C. for 260 min, and the absorbance value at 405 nm was measured. The experiment was performed in triplicate. The blank control only contained the reaction buffer and the substrate as the minimum absorption value (Min OD405 nm). The negative control only contained the reaction buffer, the enzyme and the substrate as the maximum absorption value (Max OD405 nm). • (2) In the reaction system of 205 μL, the final concentrations of trypsin and BApNA were 50 nM and 1.22 mM, respectively. • (3) Data statistics
Residual activity of the enzyme (%)=(1−(Max OD405 nm−Sample OD405 nm)/(Max OD405 nm−Min OD405 nm))*100
Plotted the residual activity of the enzyme with […] to obtain the half inhibitory concentration (IC50) of BTs scaffold against trypsin. Then, substituted it into the formula Ki=IC50/(1+S/Km) (S, IC50 and Km were substrate concentration, half inhibitory concentration and Michaelis constant, respectively) to obtain the inhibition constant Ki of BTs scaffold against trypsin.

Usually Ki stands for the equilibrium dissociation constant of an inhibitor or competing ligand from its target. Turning to `CC[C@H](C)[C@@H]1NC(=O)[C@@H]2CCCN2C(=O)[C@@H]2CCCN2C(=O)[C@H]([C@@H](C)CC)NC(=O)[C@H](CO)NC(=O)[C@H](CCCCN)NC(=O)[C@H]([C@@H](C)O)NC(=O)CNC(=O)[C@H](CCCCN)NC(=O)[C@H](C)NC(=O)CNC(=O)[C@@H](N)CSSC[C@@H](C(=O)N[C@@H](Cc2ccccc2)C(=O)N2CCC[C@H]2C(=O)N[C@@H](CC(=O)O)C(=O)O)NC1=O` [BT2] (H-CGAKGTKSIPPICFPD-OH; disulfide 1-13; N-terminus and C-terminus assumed), the Ki turned out to be 650 nM. Also, where the note is “peptide 0.488 μM”, the Residual trypsin activity stood at 94.6 ± 1.7%. Further, for the setting “peptide 0.98 μM”, the Residual trypsin activity worked out at 83.6 ± 5.2%. In addition, the Residual trypsin activity (peptide 1.95 μM) is reported as 72.9 ± 6.1%. The Residual trypsin activity (peptide 2.93 μM) worked out at 51.2 ± 9.0%. Further, the Residual trypsin activity (peptide 4.88 μM) stood at 12.9 ± 1.3%. In addition, the Residual trypsin activity (peptide 9.76 μM) worked out at 4.2 ± 0.4%. For the same compound, the Residual trypsin activity (peptide 19.51 μM) came out at 3.7 ± 0.5%. For the setting “peptide 39.02 μM”, the Residual trypsin activity came out at 0.5 ± 0.1%.
For `CC[C@H](C)[C@@H]1NC(=O)[C@@H]2CCCN2C(=O)[C@@H]2CCCN2C(=O)[C@H]([C@@H](C)CC)NC(=O)[C@H](CO)NC(=O)[C@H](CCCCN)NC(=O)[C@H]([C@@H](C)O)NC(=O)[C@H](C)NC(=O)[C@H](CCCCN)NC(=O)[C@H](C)NC(=O)CNC(=O)[C@@H](N)CSSC[C@@H](C(=O)N[C@@H](Cc2ccccc2)C(=O)N2CCC[C@H]2C(=O)N[C@@H](CC(=O)O)C(=O)O)NC1=O` [BT3] (H-CGAKATKSIPPICFPD-OH; disulfide 1-13; N-terminus and C-terminus assumed), the Ki came out at 140 nM. For the setting “peptide 0.098 μM”, the Residual trypsin activity is recorded as 95.7 ± 3.6%. Further, for the setting “peptide 0.1463 μM”, the Residual trypsin activity stood at 86.8 ± 2.5%. In addition, for the setting “peptide 0.293 μM”, the Residual trypsin activity turned out to be 85.6 ± 1.3%. Where the note is “peptide 0.488 μM”, the Residual trypsin activity is recorded as 67.2 ± 4.8%. Moreover, the Residual trypsin activity (peptide 0.98 μM) is 23.3 ± 5.3%. Also, for the setting “peptide 4.88 μM”, the Residual trypsin activity is recorded as 1.8 ± 0.9%. For the same compound, the Residual trypsin activity (peptide 9.76 μM) stood at 0.9 ± 0.4%. Under “peptide 19.51 μM”, the Residual trypsin activity turned out to be 0.1 ± 0.0%.
By IC50 is commonly meant the concentration needed to halve the response being measured. Take `CC[C@H](C)[C@@H]1NC(=O)[C@@H]2CCCN2C(=O)[C@@H]2CCCN2C(=O)[C@H]([C@@H](C)CC)NC(=O)[C@H](CO)NC(=O)[C@H](CCCCN)NC(=O)[C@H]([C@@H](C)O)NC(=O)CNC(=O)[C@H](CCCCN)NC(=O)[C@H](C)NC(=O)CNC(=O)[C@@H](N)CSSC[C@@H](C(=O)N[C@@H](CC(=O)O)C(=O)O)NC(=O)[C@H](Cc2ccccc2)NC(=O)CNC1=O` [BT4] (H-CGAKGTKSIPPIGFCD-OH; disulfide 1-15 (inferred); N-terminus and C-terminus assumed): the IC50 is more than 50 µM.
In the case of `CC[C@H](C)[C@@H]1NC(=O)[C@@H]2CCCN2C(=O)[C@@H]2CCCN2C(=O)[C@H]([C@@H](C)CC)NC(=O)[C@H](CO)NC(=O)[C@H](CCCCN)NC(=O)[C@H]([C@@H](C)O)NC(=O)[C@H](C)NC(=O)[C@H](CCCNC(=N)N)NC(=O)CNC(=O)[C@@H](N)CSSC[C@@H](C(=O)N[C@@H](Cc2ccccc2)C(=O)N2CCC[C@H]2C(=O)N[C@@H](CC(=O)O)C(=O)O)NC1=O` [BT5] (H-CGRATKSIPPICFPD-OH; disulfide 1-12; N-terminus and C-terminus assumed), the “inhibitory activity against trypsin (in words)” value (“inhibitory activity” below) was “enhanced trypsin inhibitory activity” and the Ki was 30 nM. For the same compound, the Residual trypsin activity (peptide 0.00098 μM) was found to be 104.0 ± 5.2%. In addition, the Residual trypsin activity (peptide 0.002439 μM) is recorded as 108.1 ± 2.6%. For the same compound, the Residual trypsin activity (peptide 0.00488 μM) is on record as 103.7 ± 5.2%. Also, the Residual trypsin activity (peptide 0.0488 μM) came out at 83.1 ± 0.4%. For the same compound, the Residual trypsin activity (peptide 0.098 μM) is listed as 75.2 ± 5.9%. In addition, the Residual trypsin activity (peptide 0.488 μM) is 3.0 ± 0.2%. In addition, the Residual trypsin activity (peptide 0.98 μM) worked out at 0.7 ± 0.1%.
As to `CC[C@H](C)[C@@H]1NC(=O)[C@@H]2CCCN2C(=O)[C@@H]2CCCN2C(=O)[C@H]([C@@H](C)CC)NC(=O)[C@H](CO)NC(=O)[C@H](CCCCN)NC(=O)[C@H]([C@@H](C)O)NC(=O)[C@H](C)NC(=O)[C@H](CO)NC(=O)CNC(=O)[C@@H](N)CSSC[C@@H](C(=O)N[C@@H](Cc2ccccc2)C(=O)N2CCC[C@H]2C(=O)N[C@@H](CC(=O)O)C(=O)O)NC1=O` [BT6] (H-CGSATKSIPPICFPD-OH; disulfide 1-12; N-terminus and C-terminus assumed), the “inhibitory activity” value is reported as “enhanced trypsin inhibitory activity”, the Ki was 60 nM and the IC50 is 0.29 µM. The Residual trypsin activity (peptide 0.000488 μM) amounted to 99.3 ± 7.2%. Moreover, the Residual trypsin activity (peptide 0.002439 μM) came out at 108.6 ± 7.1%. For the same compound, under “peptide 0.00488 μM”, the Residual trypsin activity is recorded as 111.9 ± 7.2%. The Residual trypsin activity (peptide 0.195 μM) worked out at 77.5 ± 7.6%. In addition, the Residual trypsin activity (peptide 0.488 μM) came to 25.9 ± 2.9%. Moreover, the Residual trypsin activity (peptide 0.98 μM) is reported as 8.5 ± 0.9%. Moreover, the Residual trypsin activity (peptide 1.95 μM) is given as 2.8 ± 0.0%. Under “peptide 4.88 μM”, the Residual trypsin activity is recorded as 1.2 ± 0.2%.
As to `CC[C@H](C)[C@@H]1NC(=O)[C@@H]2CCCN2C(=O)[C@@H]2CCCN2C(=O)[C@H]([C@@H](C)CC)NC(=O)[C@H](CO)NC(=O)[C@H](CCCCN)NC(=O)[C@H]([C@@H](C)O)NC(=O)[C@H](C)NC(=O)[C@H](C)NC(=O)CNC(=O)[C@@H](N)CSSC[C@@H](C(=O)N[C@@H](Cc2ccccc2)C(=O)N2CCC[C@H]2C(=O)N[C@@H](CC(=O)O)C(=O)O)NC1=O` [BT7] (H-CGAATKSIPPICFPD-OH; disulfide 1-12; N-terminus and C-terminus assumed), the “inhibitory activity” value was “enhanced trypsin inhibitory activity” and the Ki amounted to 50 nM. Also, the Residual trypsin activity (peptide 0.000098 μM) worked out at 103.5 ± 1.6%. In addition, under “peptide 0.0002439 μM”, the Residual trypsin activity is on record as 107.8 ± 3.2%. Further, the Residual trypsin activity (peptide 0.000488 μM) amounted to 97.9 ± 4.3%. In addition, where the note is “peptide 0.0488 μM”, the Residual trypsin activity came out at 95.2 ± 1.1%. Besides, under “peptide 0.2439 μM”, the Residual trypsin activity was found to be 48.5 ± 5.3%. In addition, under “peptide 0.98 μM”, the Residual trypsin activity was determined as 5.7 ± 1.7%. The Residual trypsin activity (peptide 1.463 μM) amounted to 2.9 ± 1.1%. Also, the Residual trypsin activity (peptide 1.95 μM) came out at 1.5 ± 0.3%.
Turning to `CC[C@H](C)[C@@H]1NC(=O)[C@@H]2CCCN2C(=O)[C@@H]2CCCN2C(=O)[C@H]([C@@H](C)CC)NC(=O)[C@H](CO)NC(=O)[C@H](CCCCN)NC(=O)[C@H]([C@@H](C)O)NC(=O)[C@H](C)NC(=O)[C@H](CCCNC(=N)N)NC(=O)CNC(=O)[C@@H](N)CSSC[C@@H](C(=O)O)NC1=O` [BT8] (H-CGRATKSIPPIC-OH; disulfide 1-12 (inferred); N-terminus and C-terminus assumed), the half-maximal inhibitory concentration (IC50) was more than 50 µM.
